{"source": "patent US7179828B2", "about": "“Biologically active neopeltolide compounds” (priority 2003, dated 2007)", "format_in_all_cases": "cell-based", "key": {"[1]": {"tested_on": "Candida albicans (American Type Culture Collection strain 44506)", "experiment": "Agar (disk) diffusion assay", "protocol": "(§1) The antifungal activity of neopeltolide against Candida albicans (American Type Culture Collection strain 44506) was determined through the use of both agar diffusion and broth dilution assays.\nAgar diffusion assays were performed using Sabouraud Dextrose agar plates seeded with the test microbe at 10^5/ml. Disks (6.35 mm, Schliecher and Schuell) were impregnated with 25 μg of neopeltolide, allowed to dry and then placed on the agar surface. After incubation at 37° C. for 24 hours the zones of growth inhibition were determined. A control disk containing 100 IU nystatin was run on the same plate as the neopeltolide: the zone of inhibition was 28 mm."}, "[2]": {"tested_on": "Candida albicans (American Type Culture Collection strain 44506)", "experiment": "Broth dilution assay (MIC)", "conditions": "read-out: Minimum Inhibitory Concentration (MIC)", "protocol": "as §1\nBroth dilution assays were performed as standard 96-well microtiter assays in a total volume of 50 μl with a seeding density of 10^3 cells/ml. The concentration range for neopeltolide ranged from 5 to 0.4 μg/ml as two-fold dilutions."}, "[3]": {"tested_on": "A549 human lung adenocarcinoma", "experiment": "In vitro proliferation of A549 tumor cells (MTT)", "conditions": "72-h exposure", "protocol": "(§2) Neopeltolide was analyzed as to its effect on the proliferation of A549 human lung adenocarcinoma, NCI-ADR-RES (Formerly MCF-7/ADR) human breast cancer and P388 murine leukemia cell lines. P388 cells were obtained from Dr. R. Camalier, National Cancer Institute, Bethesda, Md., and A549 and NCI-ADR-RES cells were obtained from American Type Culture Collection, Rockville, Md.\n(§3) All cell lines are maintained in Roswell Park Memorial Institute (RPMI) medium 1640 supplemented with 100 U/mL penicillin 100 μg/ml streptomycin, 60 μg/ml L-glutamine, 18 mM HEPES, 0.05 mg/mL gentamycin and 10% fetal bovine serum. […]\n(§4) A volume of 75 μl of warm growth media containing 5 mg/ml MTT is added to each well, cultures returned to the incubator, and left undisturbed for 3 hours. To spectrophotometrically quantitate formation of reduced formazan, plates are centrifuged (900×g, 5 minutes), culture fluids removed by aspiration, and 200 μl of acidified isopropanol (2 ml concentrated HC/liter isopropanol) added per well. The absorbance of the resulting solutions is measured at 570 nm with a plate reader (Spectra II Tecan Laboratories). […]\n(§5) The two standard drug controls (indicated above) are included in each assay to monitor the drug sensitivity of each of the cell lines and IC50 values are determined for each drug-cell combination."}, "[4]": {"tested_on": "NCI-ADR-RES (Formerly MCF-7/ADR) human breast cancer", "experiment": "In vitro proliferation of NCI-ADR-RES tumor cells (MTT)", "conditions": "72-h exposure, read-out: NCIADR-RES IC50", "protocol": "as §2, §3, §4, §5"}, "P388 murine leukemia": {"tested_on": "P388 murine leukemia", "experiment": "In vitro proliferation of P388 tumor cells (MTT)", "conditions": "Mus musculus, 48-hr exposure", "protocol": "as §2, §3, §4, §5"}}, "note": "Read-outs that look alike come from different tables or passages of the source.", "data": [{"smiles": "C[C@@H]1[C@H](O)[C@@H](C)/C=C/C=C/CC/C=C/C=C/C=C/C=C/C(O[C@H]2O[C@H](C)[C@@H](O)[C@H](N)[C@@H]2O)CC2O[C@](O)(CC(O)C(O)CCC(O)CC(O)CC(O)CC(=O)O[C@H]1C)CC(O)C2C(=O)O", "note": "(stereo partly shown) [nystatin, reference compound]", "values": [{"measurement": "zone of inhibition", "setting": "[1]; control disk containing 100 IU, C. albicans, 37° C., 24 hours", "result": 28, "unit": "mm"}]}, {"smiles": "Nc1nc(=O)[nH]cc1F", "note": "[5-fluorocytosine, reference compound]", "values": [{"measurement": "MIC", "setting": "[2]; C. albicans, 96-well broth dilution, 37° C., 24 hours, complete inhibition of growth", "result": 0.62, "unit": "µg/mL"}]}, {"smiles": "CCCC1CC(OC)CC(C)CC2CC(OC(=O)/C=C\\CCc3coc(/C=C\\CNC(=O)OC)n3)CC(CC(=O)O1)O2", "note": "(stereo not shown) [Neopeltolide (I), Neopeltolide]", "values": [{"measurement": "zone of inhibition at 25 µg/disc", "setting": "[1]; Candida albicans, 24 h, read-out: growth inhibitory zone", "result": 17, "unit": "mm"}, {"measurement": "IC50", "setting": "[3]", "result": 1.17, "unit": "nM"}, {"measurement": "IC50", "setting": "[4]", "result": 5.1, "unit": "nM"}, {"measurement": "MIC", "setting": "[2]; 24 h", "result": 0.625, "unit": "µg/mL"}, {"measurement": "IC50", "setting": "P388 murine leukemia", "result": 0.56, "unit": "nM"}]}]}
